What was measured:
[1] = test system: Chinese hamster ovary (CHO) cells; experiment: Toxicity in hypoxic and aerated CHO cells (plating efficiency/survival); assay type: cell-based
Experimental: The toxicity of the invention compounds with respect to Chinese hamster ovary (CHO) cells was compared in air and in nitrogen induced hypoxia as described by Moore, B. A., et al, Radiation Research (1976) 67:459-478. The radiosensitizing ligands, or cis or transdichlorodiamine platinum II (DDP) or the . bisubstituted platinum complexes, PtCl2 (L)2, were used as controls.
The cells were carried in MEM a medium with 10% fetal calf serum, and plating efficiencies were determined on the seventh day after plating.
In similar experiments at 100 mM/dm^3, MISO and trans-[PtCl2 (miso)2 ] show no toxicity. Survival rates for trans-DDP and monoammine were 0.2 and 0.1 respectively.
Using 100 mM levels, mono-6NQ caused plating efficiency to drop to 0 after an hour, while 6NQ had no effect after 3 hours.

[2] = test system: L1210 cells, cDDP sensitive line; experiment: Toxicity in cisDDP-sensitive L1210 cells; assay type: cell-based; settings: listed as trans mono MISO, read-out: ID50 (the source's name)
Source text: (§1) Patients become resistant to cisplatin (cisDDP) and to many related drugs.

KHT tumor model = settings: 200 mg/kg, 0.5 or 1 hour prior to X-irradiation; FIG. 6
[3] = test system: L1210 cells, cDDP resistant line; experiment: Toxicity in cisDDP-resistant L1210 cells (cross-resistance); assay type: cell-based; settings: L1210, cDDP resistant line; read-out: ID50 (the source's name)
Source text: as §1

hypoxic cells = settings: Teicher et al; cited from earlier work

Compound	toxicity compared with other isomer ([1]; 100 mM/dm^3, FIG. 1)	approximate order of hypoxic toxicity of platinum complexes ([1]; hypoxia)	IC50 [2] [mM]	radiosensitization in vivo (KHT tumor model)	IC50 [3] [mM]	killing of hypoxic cells / toxicity toward oxygenated cells (hypoxic cells)
COCC(O)Cn1cc[n+]([Pt-2]([NH3+])([Cl])[Cl])c1[N+](=O)[O-] (stereo not drawn) [trans-mono-MISO, PtCl2 (NH3) (misonidazole)]	trans isomer is more toxic than cis	cis-DDP ff trans-mono-MISO f monoammine Z cis-mono-MISO f trans-DDP f mono-METRO Z mono-NI f mono-ANT	6.5	enhance the effect of the X-rays	18.6	–
mono-substituted platinum complex of 1,2-diamino-4-nitrobenzene [Plato]	–	–	–	–	–	high capacity for killing of hypoxic cells and less toxicity toward oxygenated cells

From US5026694A, “Platinum complexes with one radiosensitizing ligand” (priority 1989, dated 1991)
